Results: PMC9917735, “Optimization of the Hemolysis Assay for the Assessment of Cytotoxicity” (International Journal of Molecular Sciences, 2023)
Values after ≈ are worked out from the molar mass of the structure shown. Like-named read-outs stand apart in the source and are kept apart here. Residues, ends and D or L forms follow the SMILES beside them. *: point of attachment. Hexanoyl = CCCCCC(=O)*

Legend:
E. coli = details: E. coli
[1] = tested on: washed human erythrocytes; experiment: Flow cytometry of treated erythrocytes with live/dead amine-reactive stain; format: cell-based; details: washed human erythrocytes treated 60 minutes, AMPs 100 μM, amine-reactive dye 488, flow cytometry 533/30 nm
Description: Briefly, a 1% washed erythrocyte solution was diluted to ~10^5 cells/mL and 0.4% Trypan blue (1:1 ratio) was added before 10 μL of the stained cell suspension was added to the Countess cell counting chamber slide. After a 30 s incubation, the slide was inserted into the instrument for automatic cell counting.
The Countess II automated cell counter (see above) was used to adjust the negative control sample to ~10^5 cells/mL and to subsequently dilute all samples by the same factor. Then, 0.5 μL of live/dead amine-reactive dye 488 (Fisher Scientific, Waltham, MA, USA) was added to 0.5 mL cell suspension and incubated for 30 min protected from light. Subsequently, the samples were washed twice with PBS pH 7 containing 1% bovine serum albumin (BSA), and finally resuspended in PBS pH 7 with 1% BSA. Cells were next counted, and the fluorescence measured using the 533/30 nm filter in an Accuri C6 flow cytometer (BD Biosciences, Franklin Lakes, NJ, USA).

rabbit erythrocytes = details: AMPs 100 μM, 1 hour 37 °C, pos. 10% Triton X-100, neg. PBS, 3 x 2 replicates
Text: (§1) Cytotoxicity studies are important during characterization of novel compounds or materials intended for interactions within human biological systems in vivo. Evaluation of the extent to which the compound induces disruption of the membrane of erythrocytes (red blood cells), thereby causing release of cellular content, often constitutes an initial step in such cytotoxicity assessments. The assay used in this context is generally referred to as the hemolysis assay, which has the advantages of being cheap, accessible, and simple to perform. Blood is drawn from a human or an animal, and next, the washed erythrocytes are incubated together with the compound or material under investigation. If the compound causes hemolysis, hemoglobin (along with other cellular constituents) will be released into the supernatant.
(§2) Blood from mice, rats, and rabbits was provided by the Department of Comparative Medicine at Oslo University Hospital (Marianne Aannestad). For mice and rats, the blood was collected from the heart by using 25 G and 21 G needles, respectively, whereas for rabbits, the blood was collected by free bleed through the ear using a yellow neoflon (24 G). All animals were wild type and anesthetized prior to the procedure.
(§3) All blood was collected in Lithium Heparin tubes 4 mL (Greiner Bio-One, Kremsmünster, Austria) or Coagulation sodium citrate 3.2% tubes 3 mL (Greiner Bio-One).
(§4) AMP 2 contained an N-terminal hexanoic acid moiety, whereas all peptides contained amidated C-termini. These three peptides were synthesized by Genscript Inc. (Piscataway, NJ, USA), and stock solutions of 1 mg/mL were made from the purchased powders. […] All peptides were diluted to yield a 100 μM final concentration in the hemolysis assays.
(§5) Triton X-100 (T8787) and Tween-20 (P2287) detergents were purchased from Sigma Aldrich and diluted to obtain 10% stock solutions by weighing (w/v). A sodium Dodecyl Sulfate (SDS) 10% solution was purchased from Invitrogen (Waltham, MA, USA, 15553027). All subsequent dilutions annotated in figures were made from these stocks.
(§6) As soon as possible after phlebotomy, the blood samples were centrifuged at 1700× g for 5 min. The supernatant was removed by aspiration and 2 mL of PBS pH 7 was added. The washing step was repeated three times or until the supernatant was clear. After final aspiration, the remaining pellet was diluted 1:100 in PBS pH 7 to obtain a 1% erythrocyte suspension (or 1:100, 1:50, and 1:20 for assays testing the effect of erythrocyte concentration). For experiments using whole blood, the washing steps were not performed, but downstream experimentation was identical. For experiments performed with 96-well plates, 50 μL of test compound, water, or detergent were mixed with 50 μL of blood sample (1% erythrocyte suspension or whole blood). For experiments using larger volumes, 250 μL of test compound, water, or detergent were mixed with 250 μL blood sample in an Eppendorf tube. Samples were subsequently incubated at 37 °C for 60 min (or 15, 30, 60, 90, or 120 min for assays evaluating the effect of incubation time). After incubation, the plates/tubes were centrifuged at 1700× g for 5 min, and then 50 μL of the supernatants were transferred to transparent, flat-bottom 96-well plates (Anicrin, A013418). Finally, absorption was measured at 405, 530, and 570 nm in a Victor Nivo Multimode microplate reader (Perkin Elmer, Waltham, MA, USA).

rabbit whole blood = details: for Hemolysis ratio: rabbit whole blood, AMPs 100 μM, 1 hour 37 °C, 3 x 2 replicates
Text: as §1, §2, §3, §4, §5, §6

mouse erythrocytes = details: AMPs 100 μM, 1 hour 37 °C, pos. 10% Triton X-100, neg. PBS, 3 x 2 replicates
Text: as §1, §2, §3, §4, §5, §6

rat erythrocytes = details: AMPs 100 μM, 1 hour 37 °C, pos. 10% Triton X-100, neg. PBS, 3 x 2 replicates
Text: as §1, §2, §3, §4, §5, §6

human whole blood = details: for Calculated hemolysis ratio: human whole blood, peptides 100 μM, 60 min 37 °C, neg. PBS, 3 x 2 replicates
[2] = tested on: washed human erythrocytes; experiment: Hemolysis assay, washed human erythrocytes

In the case of CCCCCC(=O)N[C@@H](CCSC)C(=O)N[C@@H](CCCCN)C(=O)N[C@@H](CCCNC(=N)N)C(=O)N[C@@H](CCCCN)C(=O)N[C@@H](CCCCN)C(=O)N[C@@H](CCCCN)C(=O)N[C@H](C(=O)N[C@@H](CC(C)C)C(=O)N[C@H](C(=O)N[C@@H](CCCCN)C(=O)N[C@@H](CCCCN)C(=O)N[C@H](C(=O)N[C@@H](CC(C)C)C(=O)N[C@@H](CCCCN)C(=O)N[C@@H](CC(C)C)C(=O)N[C@@H](CCCCN)C(=O)N[C@@H](CO)C(=O)N[C@@H](CO)C(=O)N[C@@H](C)C(=O)N[C@@H](Cc1ccc(O)cc1)C(N)=O)C(C)C)[C@@H](C)CC)[C@@H](C)CC [AMP 2] (Hexanoyl-MKRKKKILIKKVLKLKSSAY-NH2), the “Minimum inhibitory concentration (E. coli)” value (E. coli) is reported as 4 µM (≈ 10 µg/mL), the “Fluorescence intensity per cell of remaining intact cells (live/dead stain)” value [1] is reported as “low fluorescence” and the Hemolysis ratio (rabbit erythrocytes; Table S4: washed rabbit erythrocytes, OD 405 nm) is reported as 4.6 +/- 0.7%. The Hemolysis ratio (rabbit erythrocytes; washed rabbit erythrocytes, OD 530 nm) was 1.7 +/- 3.6%, the Hemolysis ratio (rabbit erythrocytes; washed rabbit erythrocytes, OD 570 nm) was 2.2 +/- 1.4% and the “Fold decrease of hemolytic effect in rabbit whole blood vs washed rabbit erythrocytes” value (rabbit whole blood; cf. Tables S3 and S4, 100 μM) was 23 fold. The Hemolysis ratio (rabbit whole blood; OD 405 nm, neg. PBS) was 0.6 +/- 3.2%, the Hemolysis ratio (rabbit whole blood; OD 530 nm, pos. 10% SDS, neg. PBS) was 0.2 +/- 0.6% and the Hemolysis ratio (rabbit whole blood; OD 570 nm, pos. 10% Triton X-100, neg. PBS) was 0.2 +/- 0.5%. The Hemolysis ratio (mouse erythrocytes; Table S4: washed mouse erythrocytes, OD 405 nm) was 0.1 +/- 2%, the Hemolysis ratio (mouse erythrocytes; washed mouse erythrocytes, OD 530 nm) was -11.8 +/- 8% and the Hemolysis ratio (mouse erythrocytes; washed mouse erythrocytes, OD 570 nm) was -2.7 +/- 1.9%. For the same molecule, the Hemolysis ratio (rat erythrocytes; Table S4: washed rat erythrocytes, OD 405 nm) was 5.2 +/- 1.9%, the Hemolysis ratio (rat erythrocytes; washed rat erythrocytes, OD 530 nm) was 2.6 +/- 5.7% and the Hemolysis ratio (rat erythrocytes; washed rat erythrocytes, OD 570 nm) was 3.3 +/- 3%. For the same molecule, the Calculated hemolysis ratio (human whole blood; OD 405 nm (signal saturated), pos. 10% SDS) was 0.4 ± 0.2%, the Calculated hemolysis ratio (human whole blood; OD 530 nm, pos. 10% SDS) was 0.2% and the Calculated hemolysis ratio (human whole blood; OD 570 nm, pos. 10% Triton X-100 (table title; text says 10% SDS)) was −0.1%. For the same molecule, the “Fold reduction in HR in human whole blood in comparison with washed erythrocytes measured at 405 nm” value (human whole blood; whole blood HR with 10% SDS as positive control (Table 5) vs washed erythrocytes (Table 6), 100 μM) was > 41 fold, the Calculated hemolysis ratio ([2]; 1% washed human erythrocytes, OD 530 nm, peptides 100 μM, 60 min 37 °C, pos. 10% Triton X-100, neg. PBS, 3 x 2 replicates) was 5.2 ± 3% and the Calculated hemolysis ratio ([2]; 1% washed human erythrocytes, OD 570 nm, peptides 100 μM, 60 min 37 °C, pos. 10% Triton X-100, neg. PBS, 3 x 2 replicates) was 4.8 ± 6.6%. The “Calculated Hemolysis (%)” value ([2]; 2% pooled human erythrocytes, AMPs 100 µM, 60 min 37 °C, 405 nm, pos. 10% Triton X-100, neg. PBS, 3 x 2 replicates) was 5.6 ± 0.8%, the “Calculated Hemolysis (%)” value ([2]; 5% pooled human erythrocytes, AMPs 100 µM, 60 min 37 °C, 405 nm, pos. 10% Triton X-100, neg. PBS, 3 x 2 replicates) was 5.0 ± 3.3% and the Calculated hemolysis ratio ([2]; Table 1: 1% human erythrocytes, 100 µM, 60 min 37 °C, OD 405 nm, pos. 10% Triton X-100, neg. PBS, mean ± SD, 3 experimental x 2 technical replicates) was 8.5 ± 1.4%. The Calculated hemolysis ratio ([2]; Table 2: pooled blood from all 10 individuals, 1% erythrocytes, AMPs 100 µM, 60 min 37 °C, 405 nm, pos. 10% Triton X, neg. PBS, 3 x 2 replicates) was 12.4 ± 3.1%, the “Calculated Hemolysis (%)” value ([2]; Table 3: 1% pooled human erythrocytes, AMPs 100 µM, 60 min 37 °C, 405 nm, pos. 10% Triton X-100, neg. PBS, 3 x 2 replicates) was 12.4 ± 3.1% and the Calculated hemolysis ratio ([2]; Table 4: incubation 60 min, 37 °C, 1% human erythrocytes, AMPs 100 µM, 405 nm, pos. 10% Triton X-100, neg. PBS, 3 biological x 2 technical replicates) was 7.8 ± 1.3%. For the same molecule, the Calculated hemolysis ratio ([2]; Table 6: 1% washed human erythrocytes, OD 405 nm, peptides 100 μM, 60 min 37 °C, pos. 10% Triton X-100, neg. PBS, 3 x 2 replicates) was 8.2 ± 1.4%, the Calculated hemolysis ratio ([2]; human individual # 1, 1% erythrocytes, AMPs 100 µM, 60 min 37 °C, 405 nm, pos. 10% Triton X, neg. PBS, 3 x 2 replicates) was 8.2 ± 1.3% and the Calculated hemolysis ratio ([2]; human individual # 2, 1% erythrocytes, AMPs 100 µM, 60 min 37 °C, 405 nm, pos. 10% Triton X, neg. PBS, 3 x 2 replicates) was 10 ± 0.7%. It also gave a Calculated hemolysis ratio ([2]; human individual # 3, 1% erythrocytes, AMPs 100 µM, 60 min 37 °C, 405 nm, pos. 10% Triton X, neg. PBS, 3 x 2 replicates) of 9.8 ± 0.8%, a Calculated hemolysis ratio ([2]; human individual # 4, 1% erythrocytes, AMPs 100 µM, 60 min 37 °C, 405 nm, pos. 10% Triton X, neg. PBS, 3 x 2 replicates) of 10.4 ± 0.9% and a Calculated hemolysis ratio ([2]; human individual # 5, 1% erythrocytes, AMPs 100 µM, 60 min 37 °C, 405 nm, pos. 10% Triton X, neg. PBS, 3 x 2 replicates) of 11 ± 1%. The Calculated hemolysis ratio ([2]; human individual # 6, 1% erythrocytes, AMPs 100 µM, 60 min 37 °C, 405 nm, pos. 10% Triton X, neg. PBS, 3 x 2 replicates) was 6.4 ± 0.7%, the Calculated hemolysis ratio ([2]; human individual # 7, 1% erythrocytes, AMPs 100 µM, 60 min 37 °C, 405 nm, pos. 10% Triton X, neg. PBS, 3 x 2 replicates) was 8.9 ± 0.8% and the Calculated hemolysis ratio ([2]; human individual # 8, 1% erythrocytes, AMPs 100 µM, 60 min 37 °C, 405 nm, pos. 10% Triton X, neg. PBS, 3 x 2 replicates) was 9.1 ± 1.1%. For the same molecule, the Calculated hemolysis ratio ([2]; human individual # 9, 1% erythrocytes, AMPs 100 µM, 60 min 37 °C, 405 nm, pos. 10% Triton X, neg. PBS, 3 x 2 replicates) was 9.6 ± 1%, the Calculated hemolysis ratio ([2]; human individual # 10, 1% erythrocytes, AMPs 100 µM, 60 min 37 °C, 405 nm, pos. 10% Triton X, neg. PBS, 3 x 2 replicates) was 9.8 ± 0.7% and the Calculated hemolysis ratio ([2]; incubated in polypropylene tubes, 1% washed human erythrocytes, peptides 100 μM, 60 min 37 °C, 405 nm, pos. 10% Triton X-100, neg. PBS, 3 x 2 replicates) was 8.2 ± 2.6%. It also gave a Calculated hemolysis ratio ([2]; incubated in polystyrene tubes, 1% washed human erythrocytes, peptides 100 μM, 60 min 37 °C, 405 nm, pos. 10% Triton X-100, neg. PBS, 3 x 2 replicates) of 9.7 ± 3.4%, a Calculated hemolysis ratio ([2]; incubation 15 min, 37 °C, 1% human erythrocytes, AMPs 100 µM, 405 nm, pos. 10% Triton X-100, neg. PBS, 3 biological x 2 technical replicates) of 7.8 ± 1.1% and a Calculated hemolysis ratio ([2]; incubation 30 min, 37 °C, 1% human erythrocytes, AMPs 100 µM, 405 nm, pos. 10% Triton X-100, neg. PBS, 3 biological x 2 technical replicates) of 7.4 ± 1.2%. For the same molecule, the Calculated hemolysis ratio ([2]; incubation 90 min, 37 °C, 1% human erythrocytes, AMPs 100 µM, 405 nm, pos. 10% Triton X-100, neg. PBS, 3 biological x 2 technical replicates) was 8 ± 0.8%, the Calculated hemolysis ratio ([2]; incubation 120 min, 37 °C, 1% human erythrocytes, AMPs 100 µM, 405 nm, pos. 10% Triton X-100, neg. PBS, 3 biological x 2 technical replicates) was 8.6 ± 1.4% and the “Observed hemolytic properties (qualitative)” value ([2]; reason for choice of the AMPs) was “low”. It also gave a Calculated hemolysis ratio ([2]; total incubation volume 100 μL, 1% washed human erythrocytes, peptides 100 μM, 60 min 37 °C, 405 nm, pos. 10% Triton X-100, neg. PBS, 3 x 2 replicates) of 9.7 ± 3.4% and a Calculated hemolysis ratio ([2]; total incubation volume 500 μL, 1% washed human erythrocytes, peptides 100 μM, 60 min 37 °C, 405 nm, pos. 10% Triton X-100, neg. PBS, 3 x 2 replicates) of 8.8 ± 3.9%.
